Measured values reported in patent US5276053A, “Polycyclic amines useful as cerebrovascular agents” (Warner-Lambert Company, priority 1992, dated 1994).
Structures can show the parent of a compound that is named as a salt.

How the values were obtained:
[1] = tested on: cultured rat cortical neurons; assay: Inhibition of glutamate stimulated [^45 Ca] influx (GCI) into cultured rat cortical neurons; assay type: cell-based; conditions: Cortical neurone, read-out: CGCI IC50
Description: (§1) Since the influx of calcium is thought to be central to the damage resulting from ischemia, the ability of the compounds of the instant invention to inhibit the hypoxia and glutamate-stimulated influx of calcium into cultured rat cortical neurons (an assay representative of cerebrovascular disorders resulting from stroke or brain injury) is shown in Table 2 and Table 3, respectively. The methodology for determining the ability of the compounds of the instant invention to inhibit the glutamate-stimulated calcium influx (GCI) into cultured rat cortical neurons is to be found in: A. W. Probert and F. W. Marcoux, Soc. Neurosci. Abstr. 13, Part II, 754 (1987). Using a similar culture system, the ability of the compounds of the instant invention to inhibit the hypoxia-stimulated influx of calcium (HCI) was determined by incubating cultured cells in an atmosphere of nitrogen (95%) and CO2 (5%) at 37° C. for a period of four hours. Calcium influx was determined by subtraction of the stimulated influx in the presence of tetrodotoxin (3 μM) and magnesium (10 mM) from that found in the absence (control) and in the presence of the test substance.

[2] = target: phencyclidine (PCP) receptors; assay: Inhibition of [^3 H]TCP receptor binding (RBS1)
Method: The ability of the compounds of the instant invention to interact with phencyclidine (PCP) receptors which represents a noncompetitive NMDA antagonist binding site, is shown in Table 1. Tritiated 1[1-(2-thienyl)cyclohexyl]piperidine (TCP) binding, designated RBS1, was carried out essentially as described in J. Pharmacol. Exp. Ther., 238, 739-749 (1986).

[3] = tested on: cultured rat cortical neurons; assay: Inhibition of hypoxia stimulated [^45 Ca] influx (HCI) into cultured rat cortical neurons; assay type: cell-based; conditions: Cortical neurone, 4 h, hypoxia stimulated [^45 Ca] influx (CHCI), Table 3, nitrogen (95%) and CO2 (5%), 37° C., four hours, read-out: CGCI IC50
Description: as §1

## N[C@]12CCCC[C@H]1CCc1ccccc12 (relative stereo) [Example 2, Cis-1,3,4,9-10,10a-hexahydro-4a(2H)-phenanthrenamine monohydrochloride]
[1]
  IC50: 100 nM
[2]
  IC50: 20 nM

## CN[C@]12CCCC[C@H]1CCc1ccccc12 (relative stereo) [Example 4, Cis-1,3,4,9,10,10a-hexahydro-N-methyl-4a(2H)-phenanthrenamine monohydrochloride]
[1]
  IC50: 410 nM
[3]
  IC50: 180 nM
[2]
  IC50: 15 nM

## C=CCN[C@]12CCCC[C@H]1CCc1ccccc12 (relative stereo) [Example 5, N-Allyl-cis-1,3,4,9,10,10a-hexahydro-4a(2H)-phenanthrenamine monohydrochloride]
[1]
  IC50: 902 nM
[3]
  IC50: 660 nM
[2]
  IC50: 100 nM

## CNC12CCCCC1Cc1ccccc12 (stereo not drawn) [* (X = CH2)]
[2]
  IC50: 16 nM

## CNC12CCCCC1Sc1ccccc12 (stereo not drawn) [* (X = S), reference compound]
[1]
  IC50: 210 nM
[3]
  IC50: 180 nM

## c1csc(C2(N3CCCCC3)CCCCC2)c1 [TCP, 1[1-(2-thienyl)cyclohexyl]piperidine]
[2]
  IC50: 9 nM
